ChEMBL document CHEMBL1138059, “Discovery of a nanomolar inhibitor of the human murine double minute 2 (MDM2)-p53 interaction through an integrated, virtual database screening strategy” (J Med Chem, 2006)
The source made the active and inactive calls. The calls are words filed in the database; no cut-off is given here.

Assays:
HCT-116 [1] = assay: Induction of MDM2 accumulation in isogenic HCT116 p53-/- cells; assay type: functional, cell-based; settings: Homo sapiens
HCT-116 [2] = assay: Induction of MDM2 accumulation in HCT116 cells expressing wild type p53; assay type: functional, cell-based; settings: Homo sapiens
HCT-116 [3] = assay: Induction of p21 accumulation in isogenic HCT116 p53-/- cells; assay type: functional, cell-based; settings: Homo sapiens
HCT-116 [4] = assay: Induction of p53 accumulation in isogenic HCT116 p53-/- cells; assay type: functional, cell-based; settings: Homo sapiens
HCT-116 [5] = assay: Induction of p21 accumulation in HCT116 cells expressing wild type p53; assay type: functional, cell-based; settings: Homo sapiens
HCT-116 [6] = assay: Induction of p53 accumulation in HCT116 cells expressing wild type p53; assay type: functional, cell-based; settings: Homo sapiens
[7] = biological target: E3 ubiquitin-protein ligase Mdm2 (Homo sapiens, UniProt Q00987)
E3 ubiquitin-protein ligase Mdm2, sequence (Q00987 whole entry): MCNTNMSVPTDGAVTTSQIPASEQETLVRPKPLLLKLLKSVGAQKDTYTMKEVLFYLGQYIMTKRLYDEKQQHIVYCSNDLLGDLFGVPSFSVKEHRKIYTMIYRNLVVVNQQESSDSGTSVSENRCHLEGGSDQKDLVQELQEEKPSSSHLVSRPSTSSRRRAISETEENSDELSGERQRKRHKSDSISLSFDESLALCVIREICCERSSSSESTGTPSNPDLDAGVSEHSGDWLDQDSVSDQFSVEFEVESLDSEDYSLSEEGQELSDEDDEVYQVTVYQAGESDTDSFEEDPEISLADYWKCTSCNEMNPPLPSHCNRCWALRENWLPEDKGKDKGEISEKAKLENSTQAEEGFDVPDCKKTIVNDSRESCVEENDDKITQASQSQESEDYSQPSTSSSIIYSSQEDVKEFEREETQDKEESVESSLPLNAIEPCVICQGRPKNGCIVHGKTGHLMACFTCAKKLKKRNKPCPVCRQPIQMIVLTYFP

Cc1ccc2ccc(C(Nc3ccccc3)c3ccccc3)c(O)c2n1 (configuration not stated) was tested, and the Activity (HCT-116 [1]) was “inactive”, the Activity (HCT-116 [2]) was “Dose-dependent effect” and the Activity (HCT-116 [3]) was “inactive”. For the same compound, the Activity (HCT-116 [4]) was “inactive”, the Activity (HCT-116 [5]) was “Dose-dependent effect” and the Activity (HCT-116 [6]) was “Dose-dependent effect”. The Ki [7] was 120 nM.
